{"source": "patent US9169509B2", "about": "“Topoisomerase 2b as a predictor of susceptibility to anthracycline-induced cardiotoxicity” (Board of Regents, The University of Texas System, priority 2013, dated 2015)", "key": {"[1]": {"system": "PGC-1α and PGC-1β promoters", "assay": "Chromatin immunoprecipitation with Top2b antibody at PGC-1 promoters", "format": "cell-based, mouse", "details": "HL-1 cells (DOX 2 h) and cardiomyocytes isolated 16 h after 25 mg/kg ip", "description": "FIGS. 7a-e: a, b. PGC-1 expression in HL-1 cells. […] Expression was measured with RT-qPCR. c, d. CHiP analysis in HL-1 cells. HL-1 cardiomyocytes were treated with (right bars) or without (left bars) DOX ([…]) for 2 hrs and isolated for ChIP using the Top2β antibody. The eluted DNA and Input were PCR amplified to detect specific promoter regions represented in the schematic above the respective ChIP data. In the presence of DOX, the Top2b is readily bound to Region #1 and Region #3 of the PGC-1α promoter (c) and Region #1 and #2 of the PGC-1β promoter (d). e. CHiP study in cardiomyocytes. Cardiomyocytes were isolated from control (n=4) and Dox-treated (n=4) mice and subject to ChIP with the Top2b antibody. The data represent real-time PCR ratios for the fold-enrichment of Top2b at the respective promoters. Top2β binds the Region #1 of the PGC-1α and PGC-1β promoters efficiently following Dox treatment.\nHL-1 cells were treated with or without DOX (1 μM) for 2 h and subsequently evaluated using the ChIP protocol as previously published (24-26). For ChIP assay on isolated cardiomyocytes, mice were treated with doxorubicin (25 mg/kg, ip) or drug vehicle. […] For each individual treatment sample, the eluted ChIP product was normalized to the Input product to rule out differences in total DNA quantities between control and Dox-treatment samples. […]"}, "heart sections [2]": {"system": "heart sections", "assay": "Detection of reactive oxygen species (DHE staining) in heart sections", "format": "in vivo, mouse", "from_the_text": "The hearts were isolated on ice, embedded in OCT, snap frozen in liquid nitrogen, sectioned into 5 μm-thick slices, and ROS generation was detected immediately by using dihydroethidium (DHE). Doxorubicin treatment generated ROS in the hearts of Top2b^+/+ mice, but this was reduced by 70% in Top2b^Δ/Δ mice (FIGS. 5b,c).\nThe hearts were perfused with ice-cold PBS and quickly removed. The hearts were embedded in OCT and snap-frozen in liquid nitrogen. Series of 5 μm-thick slices were sectioned from the heart immediately. Tissue sections were then stained with Dihydroethidium (DHE, Invitrogen) for 15 m, followed by staining with DAPI (1 μg/ml, Sigma). Tissue slides were sealed and examined with an Olympus epifluorescence microscope (Model BX51). The numbers of DHE-positive nuclei and the total nuclei were counted in 5 microscopic fields (400×) per section. Five heart sections from each mouse were counted to determine the percentage of the DHE-positive nuclei."}, "heart sections [3]": {"system": "heart sections", "assay": "Detection of apoptosis in heart sections (TUNEL assay)", "format": "in vivo, mouse", "details": "after acute doxorubicin treatment", "description": "Apoptosis was detected by using TUNEL assay on heart sections. Heart harvest, sectioning, and storage were described above. Heart sections were warmed to room temperature before the apoptotic nuclei were stained by using a commercially available kit (In Situ Cell Death Detection Kit, Cat. No. 12156792910, Roche Applied Science). The entire staining procedures were performed according to the manufacturer's instructions. The nuclei were stained with DAPI (Sigma) before the slides were sealed and examined with an Olympus epifluorescence microscope (Model BX51). The apoptotic nuclei and the total nuclei per heart section were counted at 200× magnification. The apoptotic nuclei in 5 heart sections of each mouse were counted and averaged.\nThe cardio-protective effect of Dex against doxirubin-induced apoptosis was assessed in heart tissues. Dexrazoxane (100 mg/kg) was injected (ip) 8 hrs prior to doxorubicin (25 mg/kg) injection (ip). One group received only doxorubicin and a second group received only dexrazoxane. Hearts were harvested 16 hrs after doxorubicin treatment. The numbers of TUNEL-positive nuclei were counted in five fields in each heart section."}}, "data": [{"molecule": "COc1cccc2c1C(=O)c1c(O)c3c(c(O)c1C2=O)C[C@@](O)(C(=O)CO)C[C@@H]3O[C@H]1C[C@H](N)[C@H](O)[C@H](C)O1", "note": "[doxorubicin]", "values": [{"measurement": "Top2b binding to the promoter of the PGC-1α and PGC-1β genes in the presence of doxorubicin (ChIP)", "setting": "[1]", "result": "binds avidly"}, {"measurement": "Reduction of doxorubicin-generated ROS in Top2bΔ/Δ mice versus Top2b+/+ mice", "setting": "heart sections [2]; 16 hrs after doxorubicin 25 mg/kg", "result": 70, "unit": "%"}, {"measurement": "ROS generation (DHE)", "setting": "heart sections [2]; Top2b+/+ hearts, chronic doxorubicin 5 mg/kg once a week for 5 weeks", "result": "generation of ROS"}, {"measurement": "ROS generation in the hearts (DHE-positive nuclei)", "setting": "heart sections [2]; Top2b+/+ mice, 16 hrs after doxorubicin 25 mg/kg", "result": "generated ROS"}, {"measurement": "Reduction of TUNEL-positive nuclei in hearts of Top2bΔ/Δ mice compared with Top2b+/+ mice", "setting": "heart sections [3]", "result": 70, "unit": "%"}]}]}
